Measured values reported in PubChem BioAssay (NCI).
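Five compound concentrations were applied to cells in 96-well plates for 48 hours; endpoints were derived by simple linear interpolation of the resulting dose-response curve. TGI: concentration producing complete growth inhibition.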

What was measured:
Test in all cases: NCI tumour cell line growth inhibition, 48 h
[1] = test system: SW-620 colon
[2] = test system: HT29 colon
[3] = test system: KM12 colon
[4] = test system: MDA-MB-231 breast
[5] = test system: COLO 205 colon
[6] = test system: LOX IMVI melanoma
[7] = test system: SR leukemia
[8] = test system: NCI-H23 lung
[9] = test system: M14 melanoma
[10] = test system: SNB-75 CNS
[11] = test system: IGROV1 ovarian
[12] = test system: SK-OV-3 ovarian
[13] = test system: NCI-H226 lung
[14] = test system: BT-549 breast
[15] = test system: TK-10 renal
[16] = test system: T-47D breast
[17] = test system: K-562 leukemia
[18] = test system: NCI-H460 lung
[19] = test system: PC-3 prostate
[20] = test system: UACC-62 melanoma
[21] = test system: EKVX NSCLC
[22] = test system: HOP-92 NSCLC
[23] = test system: U251 CNS
[24] = test system: SF-268 CNS
[25] = test system: ACHN renal
[26] = test system: CCRF-CEM leukemia
[27] = test system: SK-MEL-28 melanoma
[28] = test system: UO-31 renal
[29] = test system: MALME-3M melanoma
[30] = test system: MDA-N
[31] = test system: SF-295 CNS
[32] = test system: A549 NSCLC
[33] = test system: MDA-MB-435
[34] = test system: RXF 393 renal
[35] = test system: HCT-15 colon
[36] = test system: 786-0 renal
[37] = test system: HCC-2998 colon
[38] = test system: HCT-116 colon
[39] = test system: OVCAR-8 ovarian
[40] = test system: SN12C renal
[41] = test system: OVCAR-3 ovarian
[42] = test system: MCF7 breast
[43] = test system: RPMI-8226 leukemia
[44] = test system: SK-MEL-2 melanoma
[45] = test system: HS 578T breast
[46] = test system: OVCAR-5 ovarian
[47] = test system: OVCAR-4 ovarian
[48] = test system: MOLT-4 leukemia
[49] = test system: SK-MEL-5 melanoma
[50] = test system: HL-60(TB) leukemia
[51] = test system: HOP-62 NSCLC
[52] = test system: SF-539 CNS
[53] = test system: DU-145 prostate
[54] = test system: SNB-19 CNS
[55] = test system: CAKI-1 renal
[56] = test system: NCI-H522 lung
[57] = test system: A498 renal
[58] = test system: UACC-257 melanoma
[59] = test system: NCI/ADR-RES ovarian

O=c1n(CCO)nc2n1CCCN2
TGI [1]: > 100 µM | TGI [2]: > 100 µM | TGI [3]: > 100 µM | TGI [4]: > 100 µM | TGI [5]: > 100 µM | TGI [6]: > 100 µM | TGI [7]: > 100 µM | TGI [8]: > 100 µM | TGI [9]: > 100 µM | TGI [10]: > 100 µM | TGI [11]: > 100 µM | TGI [12]: > 100 µM | TGI [13]: > 100 µM | TGI [14]: > 100 µM | TGI [15]: > 100 µM | TGI [16]: > 100 µM | TGI [17]: > 100 µM | TGI [18]: > 100 µM | TGI [19]: > 100 µM | TGI [20]: > 100 µM | TGI [21]: > 100 µM | TGI [22]: > 100 µM | TGI [23]: > 100 µM | TGI [24]: > 100 µM | TGI [25]: > 100 µM | TGI [26]: > 100 µM | TGI [27]: > 100 µM | TGI [28]: > 100 µM | TGI [29]: > 100 µM | TGI [30]: > 100 µM | TGI [31]: > 100 µM | TGI [32]: > 100 µM | TGI [33]: > 100 µM | TGI [34]: > 100 µM | TGI [35]: > 100 µM | TGI [36]: > 100 µM | TGI [37]: > 100 µM | TGI [38]: > 100 µM | TGI [39]: > 100 µM | TGI [40]: > 100 µM | TGI [41]: > 100 µM | TGI [42]: > 100 µM | TGI [43]: > 100 µM | TGI [44]: > 100 µM | TGI [45]: > 100 µM | TGI [46]: > 100 µM | TGI [47]: > 100 µM | TGI [48]: > 100 µM | TGI [49]: > 100 µM | TGI [50]: > 100 µM | TGI [51]: > 100 µM | TGI [52]: > 100 µM | TGI [53]: > 100 µM | TGI [54]: > 100 µM

CC(C)(C)C(=O)C(C#N)C(=O)C(C)(C)C
TGI [1]: > 100 µM | TGI [2]: > 100 µM | TGI [3]: > 100 µM | TGI [4]: > 100 µM | TGI [5]: > 100 µM | TGI [6]: > 100 µM | TGI [55]: > 100 µM | TGI [7]: 50 µM | TGI [8]: > 100 µM | TGI [9]: > 100 µM | TGI [10]: > 100 µM | TGI [11]: > 100 µM | TGI [12]: > 100 µM | TGI [13]: > 100 µM | TGI [56]: > 100 µM | TGI [15]: > 100 µM | TGI [16]: > 100 µM | TGI [17]: > 100 µM | TGI [18]: > 100 µM | TGI [57]: > 100 µM | TGI [19]: > 100 µM | TGI [21]: > 100 µM | TGI [22]: > 100 µM | TGI [23]: > 100 µM | TGI [24]: > 100 µM | TGI [25]: > 100 µM | TGI [26]: > 100 µM | TGI [58]: > 100 µM | TGI [27]: > 100 µM | TGI [28]: > 100 µM | TGI [29]: > 100 µM | TGI [59]: > 100 µM | TGI [30]: > 100 µM | TGI [31]: > 100 µM | TGI [32]: > 100 µM | TGI [33]: > 100 µM | TGI [34]: > 100 µM | TGI [35]: > 100 µM | TGI [36]: > 100 µM | TGI [37]: > 100 µM | TGI [38]: > 100 µM | TGI [39]: > 100 µM | TGI [40]: > 100 µM | TGI [41]: > 100 µM | TGI [42]: > 100 µM | TGI [43]: > 100 µM | TGI [44]: > 100 µM | TGI [45]: > 100 µM | TGI [46]: > 100 µM | TGI [47]: > 100 µM | TGI [48]: > 100 µM | TGI [49]: > 100 µM | TGI [50]: > 100 µM | TGI [51]: > 100 µM | TGI [52]: > 100 µM | TGI [53]: > 100 µM | TGI [54]: > 100 µM
